What is called GI50 is the concentration at which growth is held to half of that of the control. As a reminder, the TGI is the concentration giving total growth inhibition. Read a high TGI as lower sensitivity of the cells.

Data on twelve compounds can be found in PubChem BioAssay (NCI).

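Following 48 hours of exposure in 96-well plates, responses at five concentrations were used to interpolate endpoints linearly. GI50: concentration for 50% inhibition of growth. TGI: total growth inhibition.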

Some test systems named below: SK-MEL-2 melanoma; HOP-62 NSCLC; SF-268 CNS; NCI-H522 lung; SK-MEL-28 melanoma; MOLT-4 leukemia; SW-620 colon; HCC-2998 colon; NCI-H23 lung; RXF 393 renal.
What all share (assay): DTP human tumour cell line panel, 48 h

With `CC(=O)[CH-]C(=O)c1ccccc1.CC(=O)[CH-]C(=O)c1ccccc1.[O-]Cc1cccs1.[O-]Cc1cccs1.[Ti+4]`, the GI50 with SK-MEL-2 melanoma was above 100 µM; in the test on HOP-62 NSCLC, above 100 µM; with SF-268 CNS, above 100 µM; with NCI-H522 lung it was 54.2 µM; in the test with SK-MEL-28 melanoma, 43.8 µM; in the test with MOLT-4 leukemia, above 100 µM. The figures for the GI50 with SW-620 colon and in the test with HCC-2998 colon were 49.9 µM and above 100 µM, respectively. The TGI in the test on SK-MEL-2 melanoma, in the test on HOP-62 NSCLC, with SF-268 CNS, in the test on NCI-H522 lung, with SK-MEL-28 melanoma and in the test with MOLT-4 leukemia was above 100 µM in each case. Moreover, the TGI in the test on SW-620 colon and with HCC-2998 colon was above 100 µM each time.
On to `COc1ccc(C(NCCNC(c2ccc(OC)c(OC)c2)c2cc3c(cc2O)OCO3)c2cc3c(cc2O)OCO3)cc1OC` (stereo not given), for which the concentration for total growth inhibition (TGI) in the test on SK-MEL-2 melanoma is 15.9 µM; in the test with HOP-62 NSCLC, 30.6 µM; in the test on SF-268 CNS it was 3.24 µM; in the test with NCI-H522 lung, 3.52 µM; in the test on SK-MEL-28 melanoma it was 3.55 µM; in the test on MOLT-4 leukemia, above 100 µM. The TGI with NCI-H23 lung amounted to 9.3 µM; with RXF 393 renal it was 4.85 µM; in the test with SW-620 colon, 3.86 µM.
Consider `COc1ccc2c(c1)C(=O)/C(=C/c1ccc(OCC(=O)c3ccc(Cl)cc3)cc1)O2`, for which the GI50 in the test on SK-MEL-2 melanoma is 26.7 µM; in the test with HOP-62 NSCLC, 43.8 µM; in the test with SF-268 CNS, 18.4 µM; in the test with NCI-H522 lung, 3.77 µM; in the test on SK-MEL-28 melanoma, 15.5 µM; in the test on MOLT-4 leukemia, 3.03 µM. Besides, the GI50 in the test with NCI-H23 lung was 11.6 µM; with RXF 393 renal it was 17.3 µM; in the test with SW-620 colon, 3.48 µM. Besides, the TGI in the test with SK-MEL-2 melanoma was 99.9 µM; in the test with HOP-62 NSCLC, above 100 µM; with SF-268 CNS, 48.6 µM; with NCI-H522 lung, 15.7 µM; with SK-MEL-28 melanoma, 30.1 µM; in the test with MOLT-4 leukemia, 12.8 µM. The values for the TGI in the test on NCI-H23 lung, in the test on RXF 393 renal and in the test on SW-620 colon were 31.7 µM, 42.4 µM and 10.6 µM, respectively.
Take `CCN=C(N)CSS(=O)(=O)O`: the TGI with SK-MEL-2 melanoma, in the test on HOP-62 NSCLC, in the test with SF-268 CNS, in the test with NCI-H522 lung, in the test with SK-MEL-28 melanoma and in the test on MOLT-4 leukemia was above 100 µM throughout. Moreover, the TGI with NCI-H23 lung, in the test with RXF 393 renal and in the test on SW-620 colon was above 100 µM each time.
In the case of `COc1cc(-c2[nH]ncc2CCCC(=O)Nc2ccccc2[N+](=O)[O-])ccc1O`, the TGI in the test with HOP-62 NSCLC, with SF-268 CNS, with NCI-H522 lung, in the test with SK-MEL-28 melanoma, with MOLT-4 leukemia and in the test with NCI-H23 lung was above 100 µM each time. Further, the TGI in the test on SW-620 colon and in the test on HCC-2998 colon was above 100 µM each time.
As for `Oc1ccc(-c2nc(-c3ccc(F)cc3)c(-c3ccncc3)[nH]2)cc1`, the GI50 with HOP-62 NSCLC is 36.7 µM; in the test on SF-268 CNS, 19.3 µM; in the test with SK-MEL-28 melanoma, 6.05 µM; in the test on MOLT-4 leukemia it was 7.97 µM; with NCI-H23 lung it was 36.2 µM; in the test with RXF 393 renal, 8.92 µM. Besides, the GI50 with SW-620 colon was 32.1 µM; in the test on HCC-2998 colon, 36.7 µM. The TGI is above 100 µM with HOP-62 NSCLC; above 100 µM in the test with SF-268 CNS; 84.7 µM in the test with SK-MEL-28 melanoma; 32.5 µM with MOLT-4 leukemia; above 100 µM in the test on NCI-H23 lung; 43.2 µM with RXF 393 renal. Also, the TGI with SW-620 colon and in the test on HCC-2998 colon was above 100 µM in each case.
Consider `C=C1CCC2C3(C)COC(c4cccc(Cl)c4)OC3CCC2(C)C1/C=C/C1=CCOC1=O` (stereo not given), for which the GI50 is above 100 µM with SK-MEL-2 melanoma; above 100 µM in the test on HOP-62 NSCLC; above 100 µM in the test on SF-268 CNS; 2.92 µM in the test on NCI-H522 lung; above 100 µM in the test with SK-MEL-28 melanoma; 6.55 µM with MOLT-4 leukemia. The values for the GI50 with NCI-H23 lung, with RXF 393 renal and with SW-620 colon were 5.17 µM, above 100 µM and 80.3 µM, respectively. Further, the TGI in the test with SK-MEL-2 melanoma, in the test with HOP-62 NSCLC, with SF-268 CNS, in the test on NCI-H522 lung, with SK-MEL-28 melanoma and with MOLT-4 leukemia was above 100 µM throughout. Also, the total growth inhibition concentration (TGI) in the test on NCI-H23 lung, with RXF 393 renal and in the test with SW-620 colon was above 100 µM throughout.
In the case of `COc1ccccc1NS(=O)(=O)c1cc(C(C)(C)C)ccc1OCCOc1ccc(C(C)(C)C)cc1S(=O)(=O)Nc1ccccc1OC`, the TGI in the test with SK-MEL-2 melanoma, in the test on HOP-62 NSCLC, with SF-268 CNS, with SK-MEL-28 melanoma, in the test with MOLT-4 leukemia and with NCI-H23 lung was above 100 µM each time. Moreover, the TGI in the test with RXF 393 renal, in the test on SW-620 colon and with HCC-2998 colon was above 100 µM throughout.
Regarding `c1ccc2c(c1)SCCCSCCCS2`, the TGI in the test on HOP-62 NSCLC, in the test with SF-268 CNS, with NCI-H522 lung, in the test on SK-MEL-28 melanoma, with MOLT-4 leukemia and in the test with NCI-H23 lung was above 100 µM throughout. The TGI with SW-620 colon and in the test with HCC-2998 colon was above 100 µM in each case.
As to `COc1ccc(Br)c(CCCCC(=O)O)c1`, the TGI in the test on HOP-62 NSCLC, in the test with SK-MEL-28 melanoma, in the test with MOLT-4 leukemia, with NCI-H23 lung, in the test on RXF 393 renal and with SW-620 colon was above 100 µM in each case. This compound gave a TGI with HCC-2998 colon above 100 µM.
Consider `CCOC(=O)c1c(-c2ccccc2)[nH]c2ccccc2c1=O`, for which the TGI in the test with HOP-62 NSCLC, with SF-268 CNS, with SK-MEL-28 melanoma, in the test on MOLT-4 leukemia, in the test with NCI-H23 lung and in the test with RXF 393 renal was above 100 µM throughout. Moreover, the TGI in the test with SW-620 colon and with HCC-2998 colon was above 100 µM each time.
Consider `Cc1ccc(NC(=O)CCC(=O)C2CC(=O)CCC2=O)cc1C` (stereo not given), for which the TGI with SK-MEL-2 melanoma, in the test with HOP-62 NSCLC, in the test with SF-268 CNS, with SK-MEL-28 melanoma, with MOLT-4 leukemia and in the test on NCI-H23 lung was above 100 µM in each case. Also, the TGI with RXF 393 renal, in the test on SW-620 colon and in the test with HCC-2998 colon was above 100 µM in each case.
